Drawing on PubChem BioAssay (NCI), this text covers GI50 and TGI for 16 compounds.

What all share (experiment): NCI-60 cell line screen, 48 h
The test system of assay [1] is OVCAR-5 ovarian.
The test system of assay [2] is LOX IMVI melanoma.
For assay [3], the system named is MCF7 breast.
Assay [4] concerns DU-145 prostate.
In assay [5] the test system is SK-MEL-28 melanoma.
The test system of assay [6] is KM12 colon.
Assay [7] relates to SF-539 CNS.
Assay [8] concerns SR leukemia.
Assay [9] has as its system MDA-MB-231 breast.
Assay [10] has as its system BT-549 breast.

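Where inhibition never reached the appropriate level, the endpoint shown equals the highest concentration tested. Otherwise, values were interpolated linearly from a five-concentration, 48-hour dose response in 96-well plates. GI50 = concentration required for 50% inhibition of growth. TGI is the concentration that stops growth completely.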

For `O=C(/C=C/c1ccccc1O)c1ccccc1`, the GI50 was 15.3 µM in assay [1]; 2.09 µM in [2]; 1.34 µM in assay [3]; 5.86 µM in [4]; 9.5 µM in [5]; 1.77 µM in assay [6]. The GI50 is 15.4 µM in assay [7], 1.83 µM in [8] and 12.8 µM in [9]. Also, the TGI turned out to be 31.1 µM in assay [1]; 5.11 µM in assay [2]; 5.69 µM in [3]; 18.7 µM in assay [4]; 22 µM in assay [5]; 4.16 µM in assay [6]. Further, the TGI in assay [7] came out at 34.1 µM; in assay [8], 5.8 µM; in [9], 29.9 µM.
In the case of `CCOC(=O)NC(=O)c1cn(CCCCCCCCCCC(=O)N2CCN(CCn3cc(C(=O)NC(=O)OCC)c(=O)[nH]c3=O)CC2)c(=O)[nH]c1=O`, the TGI in assay [2], in [5] and in assay [7] was more than 100 µM in each case.
As to `CC1=C(C)C(=O)c2c(cc3c4ccccc4ccn23)C1=O`, the TGI in assay [2], in assay [5], in [6] and in [7] was more than 100 µM in each case.
As to `CCCCCCCCCCCCCCCCc1c(C(=O)OC)[nH]c(=S)[nH]c1=O`, the TGI in assay [1] was more than 50 µM; in assay [2], more than 50 µM; in assay [5], more than 50 µM; in [6], more than 50 µM; in [7], more than 50 µM; in assay [8], 32 µM.
On to `Cn1c(O)c(C=N)c(=O)n(C)c1=O`, for which the TGI in assay [1], in assay [2], in assay [5], in assay [6] and in assay [8] was more than 100 µM in each case.
Consider `OCC1OC(n2ccc3cnccc32)CC1O` (configuration not stated), for which the TGI in assay [1], in assay [2], in assay [5], in assay [6], in assay [7] and in [8] was more than 100 µM in each case.
Take `[Ce+3].[Cl-].[O-]/N=C(\c1ccccc1)c1ccccn1.[O-]/N=C(\c1ccccc1)c1ccccn1.[O-]/N=C(\c1ccccc1)c1ccccn1`: the GI50 was more than 100 µM in assay [1]; 26 µM in assay [2]; 37.9 µM in assay [5]; 46.8 µM in assay [6]; 31 µM in assay [7]. Moreover, the TGI in assay [1] was more than 100 µM; in [2], 64.7 µM; in assay [5] it was more than 100 µM; in [6] it was more than 100 µM; in assay [7], 91.9 µM.
Regarding `Cc1c(NC(=O)CCCl)c(=O)oc2c(C)c3occc(=O)c3cc12`, the TGI in [1], in assay [3], in [4], in assay [5], in assay [6] and in assay [8] was more than 100 µM in each case.
For the compound `NCC(=O)Nc1ccc(-n2nc(C(F)(F)F)cc2-c2ccc3c(ccc4ccccc43)c2)cc1`, the GI50 is 1.56 µM in assay [1]; 0.578 µM in [3]; 1.32 µM in assay [4]; 1.45 µM in [5]; 0.922 µM in assay [6]; 1.06 µM in assay [7]. In addition, the GI50 is 0.342 µM in assay [8] and 1.35 µM in [9]. Further, the TGI turned out to be 2.95 µM in assay [1]; 2.06 µM in assay [3]; 2.62 µM in assay [4]; 2.81 µM in [5]; 2.18 µM in assay [6]; 2.41 µM in [7]. Also, the TGI in [8] was determined as 2.35 µM; in [9], 2.87 µM.
As to `CC1C(=O)CCC1C(Sc1ccccc1)(Sc1ccccc1)Sc1ccccc1` (configuration not stated), the TGI in [1] is more than 100 µM; in assay [2] it was 68.5 µM; in assay [5], more than 100 µM; in assay [6], more than 100 µM; in assay [7], 35.1 µM.
In the case of `CCOC(=O)/C(=C/c1cc(OC)ccc1OC)CC(=O)O`, the TGI in [2], in assay [5], in assay [6], in assay [7] and in assay [8] was more than 100 µM throughout.
Turning to `Nc1ccccc1S(=O)c1ccccc1` (configuration not stated), the TGI in [1], in [2], in assay [5], in [6] and in assay [7] was more than 100 µM throughout.
In the case of `CC12Oc3ccc4ccccc4c3C1c1c(ccc3ccccc13)O2` (configuration not stated), the TGI in [1], in assay [2], in assay [5], in assay [6], in [7] and in [8] was more than 100 µM each time.
In the case of `CC(=O)c1cc2c3c(c1)c1cc4c(cc1c(=O)n3CC2)OCO4`, the TGI was more than 100 µM in assay [1]; more than 100 µM in [2]; more than 100 µM in assay [5]; more than 100 µM in assay [6]; more than 100 µM in assay [7]; 34.9 µM in [8].
`C=C1C(=O)O[C@H]2[C@H]1CC/C(COC(=O)NCc1c[nH]c3ccc(OC)cc13)=C\CC[C@@]1(C)O[C@@H]21`: the GI50 in assay [1] was 2.14 µM; in [2] it was 1.19 µM; in assay [4] it was 1.35 µM; in assay [5], 1.52 µM; in [6], 3.54 µM; in [7] it was 1.53 µM. Also, the GI50 in assay [8] is 0.331 µM; in assay [10] it was 0.441 µM; in assay [9], 1.92 µM. Besides, the TGI came out at 4.9 µM in assay [1]; 2.52 µM in assay [2]; 2.83 µM in [4]; 3.34 µM in [5]; 14 µM in [6]; 3.02 µM in assay [7]. Also, the TGI was 4.38 µM in [8], 1.91 µM in assay [10] and 4.3 µM in assay [9].
`Cn1nc(-c2ccccc2)c(C(=O)/C=C/c2ccccc2)c(N2CCCCC2)c1=O`: the TGI is more than 100 µM in assay [2], 62.8 µM in assay [5] and more than 100 µM in assay [7].
